Source: patent US12692249B2, “WDR5 inhibitors and modulators” (Vanderbilt University, priority 2019, dated 2026)
Where two headings read alike, the source gives them in different places.

Legend:
[1] = system: MV4:11 human cancer cell lines; experiment: Cellular viability / anti-proliferative assay, CellTiter-Glo, 5 day protocol; assay type: cell-based; settings: MV4:11 cells, 5 day incubation, CellTiter-Glo, mean of at least two replicates, read-out: GI50 on cellular proliferation of MV4:11 human cancer cell lines
Outline: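 Luminescent ATP-based viability (CellTiter-Glo) after a 5-day exposure gave GI50 via sigmoidal fitting, averaged over two or more replicates. Compounds spanned 22 two-fold steps down from 30 μM at 0.3% DMSO, on 200 MV-4-11 cells per well grown in IMDM plus 10% FBS.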

[2] = molecular target: WDR5 (Homo sapiens, UniProt P61964); experiment: TR-FRET competition binding assay, displacement of 10mer-Thr-FAM MLL peptide probe from His-tagged WDR5; settings: WDR5-His tag (residues 24-334) 2 nM; 10mer-Thr-FAM 150 nM; 60 min, room temperature; read-out: Ki for Inhibition of WDR5 by TR-FRET assay

SMILES	GI50 ([1]; Homo sapiens, MV4-11, 120 h) [nM]	Ki [2] [nM]	GI50 [1] [nM]
CCc1cnc2cccc(N3CCc4c(cc(Cn5ccnc5)cc4-c4cn(C)nc4C(F)(F)F)C3=O)c2c1 [Example 90, 7-((1H-Imidazol-1-yl)methyl)-2-(3-ethylquinolin-5-yl)-5-(1-methyl-3-(trifluoromethyl)-1H-pyrazol-4-yl)-3,4-dihydroisoquinolin-1(2H)-one]	21	0.033	
CCc1cc(C(=O)NCC2CN(C(=O)c3ccncc3)C2)c2nccc(N3CCc4c(cc(Cn5ccnc5)cc4-c4cn(C)nc4C(F)(F)F)C3=O)c2c1 [Example 219, 4-(7-((1H-Imidazol-1-yl)methyl)-5-(1-methyl-3-(trifluoromethyl)-1H-pyrazol-4-yl)-1-oxo-3,4-dihydroisoquinolin-2(1H)-yl)-6-ethyl-N-((1-isonicotinoylazetidin-3-yl)methyl)quinoline-8-carboxamide]	< 20	< 0.02	
COc1ccc2c(c1)c(N1CCc3c(cc(Cn4ccnc4C)cc3-c3cn(C)nc3C(F)(F)F)C1=O)nn2C [Example 81, 2-(5-Methoxy-1-methyl-1H-indazol-3-yl)-7-((2-methyl-1H-imidazol-1-yl)methyl)-5-(1-methyl-3-(trifluoromethyl)-1H-pyrazol-4-yl)-3,4-dihydroisoquinolin-1(2H)-one]	38	< 0.02	
CCn1cc(-c2cc(Cn3ccnc3C)cc3c2CCN(c2cccc4ncc(OC)cc24)C3=O)c(C(F)(F)F)n1 [Example 50, 5-(1-Ethyl-3-(trifluoromethyl)-1H-pyrazol-4-yl)-2-(3-methoxyquinolin-5-yl)-7-((2-methyl-1H-imidazol-1-yl)methyl)-3,4-dihydroisoquinolin-1(2H)-one]	22	< 0.02	
CCc1cc(N2CCN(C3COC3)CC2)c2nc(C)cc(N3CCc4c(cc(Cn5ccnc5)cc4-c4cn(C)nc4C(F)(F)F)C3=O)c2c1 [Example 132, 7-((1H-Imidazol-1-yl)methyl)-2-(6-ethyl-2-methyl-8-(4-(oxetan-3-yl)piperazin-1-yl)quinolin-4-yl)-5-(1-methyl-3-(trifluoromethyl)-1H-pyrazol-4-yl)-3,4-dihydroisoquinolin-1(2H)-one]	< 20	0.03	
COc1cc(COC2CCC2)c2nccc(N3CCc4c(cc(Cn5ccnc5)cc4-c4cn(C)nc4C(F)(F)F)C3=O)c2c1 [Example 159, 7-((1H-Imidazol-1-yl)methyl)-2-(8-(cyclobutoxymethyl)-6-methoxyquinolin-4-yl)-5-(1-methyl-3-(trifluoromethyl)-1H-pyrazol-4-yl)-3,4-dihydroisoquinolin-1(2H)-one]	159	0.027	
COc1cnc2c(c1)[C@@H](N1CCc3c(cc(Cn4ccnc4C)cc3-c3cn(C)nc3C(F)(F)F)C1=O)CCC2 [Example 68, (S)-2-(3-Methoxy-5,6,7,8-tetrahydroquinolin-5-yl)-7-((2-methyl-1H-imidazol-1-yl)methyl)-5-(1-methyl-3-(trifluoromethyl)-1H-pyrazol-4-yl)-3,4-dihydroisoquinolin-1(2H)-one]	< 20	< 0.02	
CCc1ccc2cncc(N3CCc4c(cc(Cn5ccnc5)cc4-c4cn(C)nc4C(F)(F)F)C3=O)c2c1 [Example 89, 7-((1H-Imidazol-1-yl)methyl)-6′-ethyl-5-(1-methyl-3-(trifluoromethyl)-1H-pyrazol-4-yl)-3,4-dihydro-1H-[2,4′-biisoquinolin]-1-one]	22	0.022	
Cc1ccc2cncc(N3CCc4c(cc(Cc5cnc[nH]5)cc4-c4cn(C)nc4C(F)(F)F)C3=O)c2c1 [Example 55, 7-((1H-imidazol-5-yl)methyl)-6′-methyl-5-(1-methyl-3-(trifluoromethyl)-1H-pyrazol-4-yl)-3,4-dihydro-1H-[2,4′-biisoquinolin]-1-one]	59	< 0.02	
COc1cc(CN2CCN(C3CCOCC3)CC2)c2nccc(N3CCc4c(cc(Cn5ccnc5)cc4-c4cn(C)nc4C(F)(F)F)C3=O)c2c1 [Example 143, 7-((1H-Imidazol-1-yl)methyl)-2-(6-methoxy-8-((4-(tetrahydro-2H-pyran-4-yl)piperazin-1-yl)methyl)quinolin-4-yl)-5-(1-methyl-3-(trifluoromethyl)-1H-pyrazol-4-yl)-3,4-dihydroisoquinolin-1(2H)-one]	< 20	0.038	
Cc1nccn1Cc1cc2c(c(-c3cn(C)nc3C(F)(F)F)c1)CCN([C@H]1CCc3ccccc31)C2=O [Example 76, (S)-2-(2,3-Dihydro-1H-inden-1-yl)-7-((2-methyl-1H-imidazol-1-yl)methyl)-5-(1-methyl-3-(trifluoromethyl)-1H-pyrazol-4-yl)-3,4-dihydroisoquinolin-1(2H)-one]	613	< 0.02	

The next lines start with the values.

GI50 ([1]; Homo sapiens, MV4-11, 120 h) [nM]	Ki [2] [nM]	GI50 [1] [nM]	SMILES
< 20	< 0.02		COc1cc(C(=O)NC2CCN(C)CC2)c2nc(C)cc(N3CCc4c(cc(Cn5ccnc5)cc4-c4cn(C)nc4C(F)(F)F)C3=O)c2c1 [Example 189, 4-(7-((1H-Imidazol-1-yl)methyl)-5-(1-methyl-3-(trifluoromethyl)-1H-pyrazol-4-yl)-1-oxo-3,4-dihydroisoquinolin-2(1H)-yl)-6-methoxy-2-methyl-N-(1-methylpiperidin-4-yl)quinoline-8-carboxamide]
< 20	< 0.02		CCc1cc(C(=O)NCCN(C)C)c2nc(C)cc(N3CCc4c(cc(Cn5ccnc5)cc4-c4cn(C)nc4C(F)(F)F)C3=O)c2c1 [Example 194, 4-(7-((1H-Imidazol-1-yl)methyl)-5-(1-methyl-3-(trifluoromethyl)-1H-pyrazol-4-yl)-1-oxo-3,4-dihydroisoquinolin-2(1H)-yl)-N-(2-(dimethylamino)ethyl)-6-ethyl-2-methylquinoline-8-carboxamide]
< 20	0.043		COc1ccc2c(C)ncc(N3CCc4c(cc(Cn5ccnc5)cc4-c4cn(C)nc4C(F)(F)F)C3=O)c2c1 [Example 88, 7-((1H-imidazol-1-yl)methy)-6′-methoxy-1′-methyl-5-(1-methyl-3-(trifluoromethyl)-1H-pyrazol-4-yl)-3,4-dihydro-1H-[2,4′-biisoquinolin]-1-one]
47	0.022		CCc1cc(CCC(=O)N2CCOCC2)c2nc(C)cc(N3CCc4c(cc(Cn5ccnc5)cc4-c4cn(C)nc4C(F)(F)F)C3=O)c2c1 [Example 153, 7-((1H-Imidazol-1-yl)methyl)-2-(6-ethyl-2-methyl-8-(3-morpholino-3-oxopropyl)quinolin-4-yl)-5-(1b-methyl-3-(trifluoromethyl)-1H-pyrazol-4-yl)-3,4-dihydroisoquinolin-1(2H)-one]
3970	> 33000		COc1ccc2nc(C)cc(N3CCc4c(cc(Cn5ccnc5[N+](=O)[O-])cc4-c4cn(C)nc4C(F)(F)F)C3=O)c2c1 [Example 118, 2-(6-Methoxy-2-methylquinolin-4-yl)-5-(1-methyl-3-(trifluoromethyl)-1H-pyrazol-4-yl)-7-((2-nitro-1H-imidazol-1-yl)methyl)-3,4-dihydroisoquinolin-1(2)-one]
111	0.029		COc1ccc2c(OC)ncc(N3CCc4c(cc(Cn5ccnc5)cc4-c4cn(C)nc4C(F)(F)F)C3=O)c2c1 [Example 22, 7-((1H-imidazol-1-yl)methyl)-1′,6′-dimethoxy-5-(1-methyl-3-(trifluoromethyl)-1H-pyrazol-4-yl)-3,4-dihydro-1H-[2,4′-biisoquinolin]-one]
51	< 0.02		CNC(=O)c1cc(N2CCc3c(cc(Cn4ccnc4)cc3-c3cn(C)nc3C(F)(F)F)C2=O)c2cc(OC)ccc2n1 [Example 237, 4-(7-((1H-Imidazol-1-yl)methyl)-5-(1-methyl-3-(trifluoromethyl)-1H-pyrazol-4-yl)-1-oxo-3,4-dihydroisoquinolin-2(1H)-yl)-6-methoxy-N-methylquinoline-2-carboxamide]
28	< 0.02		COc1cc(C(=O)Nc2ncco2)c2nc(C)cc(N3CCc4c(cc(Cn5ccnc5)cc4-c4cn(C)nc4C(F)(F)F)C3=O)c2c1 [Example 200, 4-(7-((1H-Imidazol-1-yl)methyl)-5-(1-methyl-3-(trifluoromethyl)-1H-pyrazol-4-yl)-1-oxo-3,4-dihydroisoquinolin-2(1H)-yl)-6-methoxy-2-methyl-N-(oxazol-2-yl)quinoline-8-carboxamide]
	0.025	27	COCc1cc(OC)cc2c(N3CCc4c(cc(Cn5ccnc5)cc4-c4cn(C)nc4C(F)(F)F)C3=O)ccnc12 [Example 150, 7-((1H-Imidazol-1-yl)methyl)-2-(6-methoxy-8-(methoxymethyl)quinolin-4-yl)-5-(1-methyl-3-(trifluoromethyl)-1H-pyrazol-4-yl)-3,4-dihydroisoquinolin-1(2H)-one]
45	< 0.02		COc1ccc2nccc(N3CCc4c(cc(Cn5ccnc5)cc4-c4cn(C)nc4C(F)(F)F)C3=O)c2c1 [Example 13, 7-((1H-Imidazol-1-yl)methyl)-2-(6-methoxyquinolin-4-yl)-5-(1-methyl-3-(trifluoromethyl)-1H-pyrazol-4-yl)-3,4-dihydroisoquinolin-1(2H)-one]
22	< 0.02		CCc1cc(Br)c2nc(C)cc(N3CCc4c(cc(Cn5ccnc5)cc4-c4cn(C)nc4C(F)(F)F)C3=O)c2c1 [Example 109, 7-((1H-imidazol-1-yl)methyl)-2-(8-bromo-6-ethyl-2-methylquinolin-4-yl)-5-(1-methyl-3-(trifluoromethyl)-1H-pyrazol-4-yl)-3,4-dihydroisoquinolin-1(2H)-one]
